Consider 14 molecules from ChEMBL document CHEMBL1143517, “Synthesis and in vitro leishmanicidal activity of 2-(5-nitro-2-furyl) and 2-(5-nitro-2-thienyl)-5-substituted-1,3,4-thiadiazoles” (Bioorg Med Chem Lett, 2005).

Each structure is given as a SMILES string.

A word on the IC50: it is the concentration needed to halve the response being measured.

The subject of this experiment is Leishmania major. The experiment in a line: In vitro inhibition of growth of Leishmania major promastigotes with the compound dissolved in DMSO using 3-H thymidine incorporation. In kind it is functional, organism-based.
Molecule `O=[N+]([O-])c1ccc(-c2nnc(N3CCN(c4ccccc4)CC3)s2)s1` returned an IC50 of 106 µM.

`O=[N+]([O-])c1ccc(-c2nnc(N3CCN(c4ccccc4)CC3)s2)o1`: it took 0.1 µM to reach half-maximal inhibition (IC50).

As for `O=[N+]([O-])c1ccc(-c2nnc(N3CCCCC3)s2)s1`, the half-maximal inhibitory concentration (IC50) is more than 150 µM.

Consider `CN1CCN(c2nnc(-c3ccc([N+](=O)[O-])o3)s2)CC1`, for which the IC50 was 7.3 µM.

Consider `O=[N+]([O-])c1ccc(-c2nnc(N3CCNCC3)s2)s1`, for which the IC50 was more than 150 µM.

For `CC(=O)N1CCN(c2nnc(-c3ccc([N+](=O)[O-])o3)s2)CC1`, the IC50 worked out at 1.1 µM.

`O=[N+]([O-])c1ccc(-c2nnc(N3CCOCC3)s2)o1` gave a 50% inhibitory concentration (IC50) of 5.2 µM.

For the molecule `O=C(c1ccccc1)N1CCN(c2nnc(-c3ccc([N+](=O)[O-])s3)s2)CC1`, the IC50 was determined as 11.1 µM.

The molecule `O=[N+]([O-])c1ccc(-c2nnc(N3CCCCC3)s2)o1` returned an IC50 of 3.2 µM.

In turn, `O=C(c1ccccc1)N1CCN(c2nnc(-c3ccc([N+](=O)[O-])o3)s2)CC1` came in with an IC50 of 0.5 µM.

Turning to `CN1CCN(c2nnc(-c3ccc([N+](=O)[O-])s3)s2)CC1`, the midpoint of inhibition, the IC50, lay at 103 µM.

As to `O=[N+]([O-])c1ccc(-c2nnc(N3CCOCC3)s2)s1`, the midpoint of inhibition, the IC50, lay at 10.6 µM.

In turn, `O=[N+]([O-])c1ccc(-c2nnc(N3CCNCC3)s2)o1` came in with an IC50 of 8.9 µM.

`CC(=O)N1CCN(c2nnc(-c3ccc([N+](=O)[O-])s3)s2)CC1` gave an IC50 of 48.5 µM.
